Test results: US9364514B2, “Anti-tumor adjuvant therapy” (Universite Pierre et Marie Curie (Paris 6), priority 2011, dated 2016)

Tests used:
[1] = test system: mouse breast tumors from transgenic polyoma Middle-T mice (PyMT model); test: Therapeutic assay in nude mice bearing xenografted mouse breast tumors (PyMT model); type: in vivo; conditions: 5 mg/kg i.p. daily
Description: (§1) The primary human xenografts were obtained as previously described (Marangoni et al., 2007). Mouse breast cancer tumors were obtained using the transgenic Polyoma Middle-T Mouse PyMT model. Spontaneously growing mammary tumors occurring in transgenic mice were xenografted into nude immunodeficient mice to allow pharmacological assessments, and maintained from nude mouse to nude mouse serially passages.
(§2) For therapeutic experimental assays, 5- to 8-week old Swiss nu/nu female mice received a subcutaneous graft of tumor fragments with a volume of approximately 15 mm3. Tumors developed at the graft site 2 to 6 weeks later. Mice bearing growing tumors with a volume of 40 to 200 mm^3 were individually identified and randomly assigned to the control or treatment groups (10 animals in each group) and treatments were started on day 1. Mice were weighed twice a week. Tumour-bearing mice were sacrificed when the tumor volume reached 2500 mm^3, defined as the ethical limit. Tumor volumes and antitumor activity were evaluated as previously reported (Nemati et al. 2009. Anti Cancer Drugs 20, pages 932-940).
The anti-tumoral effect of the mouse peptide DPT-C9 was analyzed in nude mice bearing xenograft mouse breast tumors obtained from the transgenic polyoma Middle-T mice. […]

[2] = test system: breast cancer model BC52; test: Therapeutic assay in mice bearing primary human breast cancer xenograft BC52; type: in vivo, Swiss nu/nu female mice
Description: as §1, §2
(§3) DPT-C9h peptide diluted in water/glucose (1 to 25 mg/kg) was given by intraperitoneally route 5 to 7 days per week, according to the models and the therapeutic schedules. Doxorubicin (Teva Pharmaceuticals) and cyclophosphamide (Baxter) were diluted in 0.9% NaCl and administered intraperitoneally at a dose of 2 mg/kg and 100 mg/kg at day 1, respectively.
(§4) The anti-tumoral effect of DPT-C9h was tested in mice bearing breast cancer model BC52 and BC146. DPT-C9h was intraperitoneally administered at 5 mg/kg once daily for 5 weeks.

[3] = test system: BC146 human breast cancer model; test: Therapeutic assay in mice bearing primary human breast cancer xenograft BC146; type: in vivo, Swiss nu/nu female mice
Description: as §1, §2, §3, §4
The inventors have further tested combined administration of DPT-C9h with doxorubicin and cyclophosphamid chemotherapy. The administration was either simultaneous or sequential: DPT-C9h was then administered at day 20, a stage corresponding to a chemotherapy-induced complete remission.

[4] = test system: MDA MB231 breast cancer cell line; test: Detection of apoptosis by Annexin-V-FITC staining; type: cell-based
Method: (§5) MDA MB231 breast cancer cell line was cultured in DMEM medium supplemented with 10% of FCS.
Apoptotic cells were detected using Annexin-V (-FITC from BD biosciences) as described by the manufacturer. Briefly, the cells were washed in 1× binding buffer, centrifuged and then resuspended in 200 μl of 1× binding buffer containing Annexin V-FITC (0.1 μg/ml) and PI (0.5 μg/ml). After incubation at room temperature in the dark for 10 min, cells were analyzed by flow cytometry. Data acquired by FACSCalibur (BD biosciences) were analyzed with Cellquest Pro software.

[5] = test system: MDA MB231 breast cancer cell line; test: Cytotoxicity assay (MTT); type: cell-based; conditions: 61 h
Method: as §5
The cytotoxicity of chemotherapy and the peptide was assessed by MTT. […] Cells were rinsed with culture medium and incubated with 10 μl MTT (5 mg/ml) in a final volume of 100 μl for 4 h at 37° C. The formation of blue formazan crystals was visualized by microscopy. After this period of incubation, 100 μl of 10% SDS in 10 mM HCl was added to each well and the plate incubated overnight. The absorbance was measured at 570 and 620 nm and the percentage of viable cells to untreated controls was estimated.

[6] = BC52 model, Treatment (Chemo.) = Ovariectomy, DPT-C9h 5 mg/kg i.p. once daily for 5 weeks
[7] = BC146 model, Chemo. = Doxorubicin + cyclophosphamid, DPT-C9h 5 mg/kg i.p.

Substance: VKKKKIKREIKI-YIETLDDILEQWARSEDL (VKKKKIKREIKIYIETLDDILEQWARSEDL; cell penetrating peptide) [DPT-C9]
- tumor growth inhibition [1]: significant tumor growth inhibition

Substance: VKKKKIKREIKI-YVETLDDIFEQWAHSEDL (VKKKKIKREIKIYVETLDDIFEQWAHSEDL; cell penetrating peptide) [DPT-C9h]
- tumor growth inhibition ([2]; BC52, 5 mg/kg i.p. once daily for 5 weeks, end of treatment): significant tumor growth inhibition
- OS: Overall survival [2, 6]: 33%
- RTV: Relative tumor volume [2, 6]: 0.70
- tumor growth inhibition ([3]; BC146, 5 mg/kg i.p. once daily for 5 weeks, end of treatment): significant tumor growth inhibition
- OS: Overall survival [3, 7]: 27%
- RTV: Relative tumor volume [3, 7]: 20.2
- tumor relapse ([3]; DPT-C9h combined with doxorubicin and cyclophosphamid, simultaneous or sequential (from day 20), versus chemotherapy alone): delayed tumor relapse better than chemotherapy alone
- CR: Complete remission ([3]; Treatment (Chemo.) = Doxorubicin 2 mg/kg + cyclophosphamid 100 mg/kg i.p. day 1, DPT-C9h simultaneous or from day 20): 0%
- apoptosis (annexin staining), combination effect ([4]; 5FU 10 μM 24 h, then 25 or 50 μM DPT-C9h for 24 further h): synergistic apoptotic effect
- apoptosis (annexin staining), combination effect ([4]; cisplatin 10 μM 24 h, then increasing doses of DPT-C9h for 24 further h): synergistic apoptotic effect
- apoptosis (annexin staining), combination effect ([4]; different doses of DPT-C9h + doxorubicin 0.25 μM, 24 h): synergistic effect on apoptosis
- apoptosis (annexin staining), combination effect ([4]; docetaxel 0.5 μM + 10 and 25 μM DPT-C9h, 24 h): synergistic apoptotic effect
- cell survival (MTT) ([5]; different doses of 5FU + DPT-C9h 10 μM): low cell survival
- cell survival (MTT) ([5]; different doses of cisplatin + DPT-C9h 10 μM): low level of cell survival
- cell survival (MTT) ([5]; different doses of docetaxel + DPT-C9h 10 μM, versus docetaxel only): low survival
